Where two headings read alike, the source gives them in different places.
Legend:
Type in all cases: cell-based
Jurkat = experiment: CellTiterGlo viability assay, Jurkat; settings: Homo sapiens, read-out: IC50 Jurkat
Protocol: (§1) In vitro viability assay were performed to assess the effects of compounds on cell viability in selected cell lines over ˜72 hrs using the CellTiterGlo (CTG, Promega-G7573) assay. The tests were performed in duplicates with treatment of compounds at 9 points, 3.16 folds titration in 96 well plates over ˜72 hrs. The compound starting concentrations were 198 μM. Cell viability assay using CellTiterGlo in 96-well plate were performed. Compound treatment 72 hrs, standard growth conditions, duplicates. Compounds were dissolved to 40 mM with thawed […]. Compounds were serially diluted at 3.16 fold in thawed DMSO, and warmed to 37° C. before being dissolved in media (2 μl+200 μl). After compounds were dissolved in media, media containing compounds were warmed to 37° C. in incubator and then compounds in media were added to cell plates (50 μl+50 μl) in duplicates. The compounds' final concentrations were from […] to 19.9 nM. All compound solubilities were checked and recorded again, then the plates were transferred to CO2 tissue culture incubator immediately and incubated for 3 days. DMSO final concentration is 0.5%.

BxPC-3 = experiment: CellTiterGlo viability assay, BxPC-3; settings: Homo sapiens, read-out: IC50 BxPC-3
Protocol: as §1

K562 = experiment: CellTiterGlo viability assay, K562; settings: for IC50: read-out: IC50 K562
Protocol: as §1

KG-1 = experiment: CellTiterGlo viability assay, KG-1; settings: Homo sapiens, read-out: IC50 KG-1
Protocol: as §1

HEL92.1.7 = experiment: CellTiterGlo viability assay, HEL92.1.7; settings: for IC50: read-out: IC50 HEL92.1.7
Protocol: as §1

human T-lymphocyte CEM = experiment: Cell proliferation (Coulter count) assay, CEM; settings: 72 h, read-out: absolute IC50, CEM
Method in brief: (§2)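 Cells grown in DMEM with 10% FBS. HeLa seeded at 10 000 cells/well, compound added after 24 h, counted day 5; L1210 and CEM seeded at 60 000 cells/well with compound, counted after 48 h and 72 h respectively. IC50 is concentration halving proliferation by Coulter count.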

MCF7 = experiment: CellTiterGlo viability assay, MCF7; settings: for IC50: read-out: IC50 MCF7
Protocol: as §1

HL-60 = experiment: CellTiterGlo viability assay, HL-60; settings: for IC50: read-out: IC50 HL-60
Protocol: as §1

Murine leukemia L1210 = experiment: Cell proliferation (Coulter count) assay, L1210; settings: Mus musculus, 48 h, read-out: absolute IC50, L1210
Method in brief: as §2

RL = experiment: CellTiterGlo viability assay, RL; settings: for IC50: read-out: IC50 RL
Protocol: as §1

[1] = test system: KG1a leukaemic stem cell compartment (Lin−/CD34+/CD38−/CD123+); experiment: Leukaemic stem cell compartment in KG1a; settings: for KG-1a (CD34+/CD38−/CD123+) % compartment: LSC as percentage of viable cells left, 72 hrs; for targeting of leukaemic/cancer stem cells in words: KG1a, compared to 8-chloroadenosine (FIG. 2, FIG. 8)
Protocol: A further comparative analysis of the toxicity of compounds in the KG1a cell line over an extended dose range was carried out, and the relative effect assessed of the compounds on the leukaemic stem cell compartment within the KG1a cell line, across the entire dose range. Thus, experimental tests were performed on certain compounds of the present invention to assess their ability to target cancer stem cells in a leukaemic cell line. The acute myeloid leukaemia (AML) cell line, KG1a, was employed to assess the relative effect of compounds on the stem cell compartment. The KG1a cell line was selected because it manifests a minor stem cell-like compartment with a distinct immunophenotype (Lin^−/CD34^+/CD38^−/CD123^+).
Cells of the KG1a cell line were maintained in RPMI medium (Invitrogen, Paisley, UK) supplemented with 100 units/ml penicillin, 100 μg/ml streptomycin and 20% foetal calf serum. Cells were subsequently aliquoted (10^5 cells/100 μl) into 96-well plates and were incubated at 37° C. in a humidified 5% carbon dioxide atmosphere for 72 hrs in the presence of nucleoside analogues and their respective nucleotide analogues (known as ProTides) at concentrations that were experimentally determined for each series of compounds. In addition, control cultures were carried out to which no drug was added. Cells were subsequently harvested by centrifugation and were analyzed by flow cytometry using the Annexin V assay.
KG1a cells were cultured for 72 hrs in the presence of a wide range of concentrations of each compound assayed. Cells were then harvested and labelled with a cocktail of anti-lineage antibodies (PE-cy7), anti-CD34 (FITC), anti-CD38 (PE) and anti-CD123 (PERCP cy5). The sub-population expressing a leukaemic stem cell (LSC) phenotype were subsequently identified and were expressed as a percentage of all viable cells left in the culture. The percentages of stem cells remaining were then plotted on a dose-response graph and the effects of the compounds were compared with 8-chloroadenosine.
The data obtained in these experiments were evaluated using one way ANOVA. All data was confirmed as Gaussian or a Gaussian approximation using the omnibus K2 test. LD50 values were calculated from the non-linear regression and line of best-fit analysis of the sigmoidal dose-response curves. All statistical analyses were performed using Graphpad Prism 6.0 software (Graphpad Software Inc., San Diego, Calif.).

MV4-11 = experiment: CellTiterGlo viability assay, MV4-11; settings: Homo sapiens, read-out: IC50 MV4-11
Protocol: as §1

[2] = Homo sapiens, K562, CellTiterGlo, 72 hrs
[3] = Homo sapiens, HEL 92.1.7, CellTiterGlo, 72 hrs
[4] = Homo sapiens, MCF7, CellTiterGlo, 72 hrs
[5] = Homo sapiens, HL-60, CellTiterGlo, 72 hrs
[6] = Homo sapiens, RL, CellTiterGlo, 72 hrs

SMILES | IC50 (Jurkat; 72 h) | IC50 (BxPC-3; BXPC-3, 72 h) | IC50 (K562; Homo sapiens, K562, 72 h) | IC50 (KG-1; KG-1, 72 h) | IC50 (HEL92.1.7; Homo sapiens, HEL 92.1.7, 72 h) | IC50 (human T-lymphocyte CEM) | IC50 (MCF7; Homo sapiens, MCF7, 72 h) | IC50 (HL-60; Homo sapiens, HL-60, 72 h) | IC50 (Murine leukemia L1210) | IC50 (RL; Homo sapiens, RL, 72 h) | KG-1a (CD34+/CD38−/CD123+) % compartment [1] | IC50 (MV4-11; MV4-11, 72 h) | targeting of leukaemic/cancer stem cells in words [1] | IC50 (Jurkat; CellTiterGlo, 72 hrs) | IC50 (BxPC-3; BXPC-3, CellTiterGlo, 72 hrs) | IC50 (K562; [2]) | IC50 (KG-1; KG-1, CellTiterGlo, 72 hrs) | IC50 (HEL92.1.7; [3]) | IC50 (MCF7; [4]) | IC50 (HL-60; [5]) | further results
C[C@H](NP(=O)(OC[C@H]1O[C@@H](n2c(Cl)nc3c(N)ncnc32)[C@H](O)[C@@H]1O)Oc1ccccc1)C(=O)OCc1ccccc1 (mixture of isomers) [C, (2S)-Benzyl 2-(((((2R,3S,4R,5R)-5-(6-amino-8-chloro-9H-purin-9-yl)-3,4-dihydroxy-tetrahydrofuran-2-yl)methoxy)(phenoxy)phosphoryl)amino)propanoate] | 15 to 100 µM | 15 to 100 µM | 15 to 100 µM | > 100 µM | 15 to 100 µM | 15 to 100 µM | 15 to 100 µM | 5 to 15 µM | 15 to 100 µM | 15 to 100 µM | 3.3% | 0.1 to 5 µM | – | – | – | – | – | – | – | – | –
Nc1ncnc2c1nc(Cl)n2[C@@H]1O[C@H](COP(=O)(NCC(=O)OC2CCCCC2)Oc2ccccc2)[C@@H](O)[C@H]1O (mixture of isomers) [Compound A, Cyclohexyl 2-(((((2R,3S,4R,5R)-5-(6-amino-8-chloro-9H-purin-9-yl)-3,4-dihydroxy-tetrahydrofuran-2-yl)methoxy)(phenoxy)phosphoryl)amino)acetate] | 15 to 100 µM | 15 to 100 µM | 5 to 15 µM | > 100 µM | 5 to 15 µM | 15 to 100 µM | 15 to 100 µM | 5 to 15 µM | 15 to 100 µM | 5 to 15 µM | – | 0.1 to 5 µM | – | – | – | – | – | – | – | – | –
Nc1ncnc2c1nc(Cl)n2[C@@H]1O[C@H](COP(=O)(NCC(=O)OCc2ccccc2)Oc2ccccc2)[C@@H](O)[C@H]1O (mixture of isomers) [Compound B, Benzyl 2-(((((2R,3S,4R,5R)-5-(6-amino-8-chloro-9H-purin-9-yl)-3,4-dihydroxytetra-hydrofuran-2-yl)methoxy)(phenoxy)phosphoryl)amino)acetate] | 0.1 to 5 µM | 5 to 15 µM | 0.1 to 5 µM | 0.1 to 5 µM | 0.1 to 5 µM | 5 to 15 µM | 0.1 to 5 µM | 0.1 to 5 µM | 5 to 15 µM | 5 to 15 µM | 2.7% | 0.1 to 5 µM | particularly effective preferential targeting of LSCs | – | – | – | – | – | – | – | –
Nc1ncnc2c1nc(Cl)n2[C@@H]1O[C@H](CO)[C@@H](O)[C@H]1O [8-chloroadenosine, 8-Chloroadenosine, reference compound] | – | – | – | – | – | 0.1 to 5 µM | – | – | 0.1 to 5 µM | – | 3.7% | – | – | 0.1 to 5 µM | 5 to 15 µM | 0.1 to 5 µM | 0.1 to 5 µM | 0.1 to 5 µM | 0.1 to 5 µM | 0.1 to 5 µM | Top in. % K562 (K562): 82.0%; EC50 (K562; Homo sapiens, K562, read-out: Ab EC50 (μM) K562): 11.8 µM; Top in. % HEL92.1.7 (HEL92.1.7): 96.4%; EC50 (HEL92.1.7; Homo sapiens, HEL 92.1.7, read-out: Ab EC50 (μM) HEL92.1.7): 2.2 µM; Top in. % MCF7 (MCF7): 79.6%; EC50 (MCF7; Homo sapiens, MCF7, read-out: Ab EC50 (μM) MCF7): 1.33 µM; Top in. % HL-60 (HL-60): 97.1%; EC50 (HL-60; Homo sapiens, HL-60, read-out: Ab EC50 (μM) HL-60): 10.2 µM; Top in. % RL (RL): 87.3%; IC50 (RL; [6]): 5 to 15 µM; EC50 (RL; Homo sapiens, RL, read-out: Ab EC50 (μM) RL): 4.39 µM; Change relative to control (%) ([1]; % LSC compartment versus the series' control): +0.4%; IC50 (MV4-11; MV4-11, CellTiterGlo, 72 hrs): 0.1 to 5 µM
Nc1ncnc2c1nc(Cl)n2[C@@H]1O[C@H](COP(=O)(NCC(=O)OCc2ccccc2)NCC(=O)OCc2ccccc2)C(O)C1O (stereo partly drawn) [Compound AC, 8-Chloroadenosine 5′-O-bis(benzyloxy-glycin-N-yl) phosphate] | – | – | – | – | – | 0.1 to 5 µM | – | – | 0.1 to 5 µM | – | – | – | no evidence of a capacity to target cancer stem cells | 0.1 to 5 µM | 5 to 15 µM | 0.1 to 5 µM | 0.1 to 5 µM | 0.1 to 5 µM | 0.1 to 5 µM | 0.1 to 5 µM | IC50 (RL; [6]): 0.1 to 5 µM; IC50 (MV4-11; MV4-11, CellTiterGlo, 72 hrs): 0.1 to 5 µM
CC(C)C[C@H](NP(=O)(OC[C@H]1O[C@@H](n2c(Cl)nc3c(N)ncnc32)C(O)C1O)Oc1ccccc1)C(=O)OCc1ccccc1 (stereo partly drawn) [V, 5′-([(Benzyloxy-L-leucin-N-yl)-phenyl]-phosphatyl) 8-chloroadenosine] | 5 to 15 µM | 5 to 15 µM | 0.1 to 5 µM | 5 to 15 µM | 0.1 to 5 µM | – | 0.1 to 5 µM | 5 to 15 µM | 15 to 100 µM | 15 to 100 µM | – | 0.1 to 5 µM | – | – | – | – | – | – | – | – | –

— patent publication US20190375778A1, “ADENOSINE DERIVATIVES FOR USE IN THE TREATMENT OF CANCER” (NuCana plc, priority 2016, published 2019)
